Results on 1 compound are retold here after patent publication US20230241226A1, “COMPOUNDS FOR TARGETED DEGRADATION OF CARRIER PROTEINS AND USES THEREOF” (CeMM - Forschungszentrum für Molekulare Medizin GmbH, priority 2019, published 2023).

In the test the target is T1, SLC9A1 (Homo sapiens, UniProt P19634).
T1 construct: endogenous in cells; host or cells: HAP1, KBM7 (WT and CRBN knockout)
Kind of test: Degradation of endogenous SLC9A1 (immunoblot). It is filed as cell-based. The procedure: (B) HAP1 and KBM7 cells were treated with different concentrations of d9A1-2.
(C)Both WT and CRBN knockout KBM7 cell lines were treated with 1 µM d9A1-2 for 16 hours.
(D) Chemical “rescue” of d9A1-2 driven degradation. WT KBM7 cell lines were treated with 0.5 µM d9A1-2 for 16 hours. These cells were also treated with bortezomib (bort. 0.25 µM), MG-132 (MG, 1 µM), MLN4924 (MLN,1 µM), pomalidomide (poma., 1 µM), or bafilomycin A1 (bafi., 10 µM). All molecules, apart from bafilomycin, could rescue SLC9A1 from degradation.
(B) HAP1 cells were treated with a dose curve of the warhead, d9A1-1, d9A1-2, d9A1-3, d9A1-4, for 24 hours.
(C) KBM7 cells were treated with varying concentrations of d9A1-2.
HEK293T, LS180 were obtained from ATCC (Manassas, VA, USA), HAP1 WT, HAP1 -/-SLC38A2 (HZGHC001975c003), HAP1 -/-SLC38A9 (HZGHC000777c011) were obtained from Horizon Genomics. Other cell lines utilized here: CAKI (a gift of Georg Winter’s lab), SW620, SW480 (both a gift from Walter Berger’s lab, Medical University Vienna), LOVO, HCT15 (both a gift from Chris Gasche), KBM7 (a gift from Thijn Brummelkamp’s lab), KBM7 -/- CRBN was described in Mayor-Ruiz et al. Cells were cultured, according to the ATCC recommendation in DMEM, RPMI or IMDM medium (Gibco) supplemented with 10% (v/v) FBS and antibiotics (100 U/ml penicillin and […] streptomycin). Knock-in single cell clones of dTAG-HA SLC38A2 HAP1 cell line were generated as previously described. For starvation, culture media was replaced with media without amino acids or FBS.
For immunoblotting, whole cell extracts were prepared using RIPA lysis buffer (25 mM Tris/HCl pH 7.6, 150 mM NaCl, 1% NP-40, 1% sodium deoxycholate, 0.1% SDS, EDTA-free protease inhibitor (Roche) and phosphatase inhibitors 2+3 (Sigma- Aldrich)). Cell extracts were incubated for 15 min on ice in 50 µL RIPA buffer. Lysates were cleared by centrifugation (20,000 g, 10 min, 4° C.). Protein extracts were quantified and normalized using the BCA assay (Thermo Scientific). Where indicated, cleared lysates where treated with the enzyme PNGase (NEB) to deglycosylate the proteins. Lämmli Sample Buffer 4x was added to protein extract samples without boiling. Cell lysates were run on SDS-polyacrylamide gel in tris-glycine running buffer and transferred to nitrocellulose membranes Amersham Protran 0.45 µm (GE Healthcare), according to standard methods. The membranes were incubated with the antibodies indicated below and visualized with horseradish peroxidase-conjugated secondary antibodies (described below) using the ECL Western blotting system (Thermo Scientific). The following antibodies were used: GAPDH (Santa Cruz, sc-365062), Actin (Cyoskeleton Inc., #AAN01), HA (Covance, cat #MMS-101R), HA (Cell Signaling, #3724), HA7-HRP (Sigma, H6533), HA (Roche, #11867423001), SLC9A1 (Santa Cruz, sc-136239), SLC2A1 (Cell Signaling, #12939), SLC38A1 (Cell Signaling, #36057). Secondary antibody for imaging goat anti-Rat IgG Alexa Fluor 488 (ThermoFisher, A11006). The following secondary antibodies were used for immunoblotting: goat anti-mouse HRP (115-035-003, Jackson ImmunoResearch) and goat anti-rabbit HRP (111-035-003, Jackson ImmunoResearch).
MG132, Bortezomib, Pomalidomide were obtained from Selleckchem. MLN4924 was obtained from MedchemExpress. Bafilomycin was obtained from Enzo Life Sciences. dTAG13 was a generous gift from the Nathanael Gray laboratory, Dana Farber Cancer Institute. The d9A1 degrader series (warhead, d9A1-1 to d9A1-4) was synthesized by Wuxi AppTec. All chemicals were dissolved in DMSO (Sigma-Aldrich) and utilized at the concertation described in respective figures.

T1 sequence (P19634 whole entry): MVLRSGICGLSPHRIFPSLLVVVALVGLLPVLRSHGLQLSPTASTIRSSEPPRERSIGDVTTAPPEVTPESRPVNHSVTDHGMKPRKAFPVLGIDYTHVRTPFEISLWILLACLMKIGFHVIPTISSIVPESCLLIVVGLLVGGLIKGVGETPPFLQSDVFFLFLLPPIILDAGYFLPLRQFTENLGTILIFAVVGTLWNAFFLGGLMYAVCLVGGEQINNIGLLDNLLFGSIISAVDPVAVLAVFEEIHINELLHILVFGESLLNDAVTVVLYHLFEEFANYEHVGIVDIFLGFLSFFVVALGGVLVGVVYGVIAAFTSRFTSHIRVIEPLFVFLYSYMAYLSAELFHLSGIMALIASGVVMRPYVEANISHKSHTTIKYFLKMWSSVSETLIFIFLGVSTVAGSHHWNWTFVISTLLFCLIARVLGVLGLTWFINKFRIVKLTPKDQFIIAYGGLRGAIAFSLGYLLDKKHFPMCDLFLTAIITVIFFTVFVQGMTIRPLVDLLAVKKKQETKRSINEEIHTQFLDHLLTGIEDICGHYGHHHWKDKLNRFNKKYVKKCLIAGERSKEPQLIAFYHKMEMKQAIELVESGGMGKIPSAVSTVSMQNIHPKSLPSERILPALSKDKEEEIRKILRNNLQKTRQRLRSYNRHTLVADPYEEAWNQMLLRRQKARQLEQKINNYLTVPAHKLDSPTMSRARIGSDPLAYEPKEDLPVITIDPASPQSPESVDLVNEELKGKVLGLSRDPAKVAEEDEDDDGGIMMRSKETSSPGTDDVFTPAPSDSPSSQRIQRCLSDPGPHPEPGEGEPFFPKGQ

Regarding `Cc1cc(-c2ccc(C(=O)NCCOCCOCCOCCOCCNc3cccc4c3C(=O)N(C3CCC(=O)NC3=O)C4=O)cc2N2CCC(c3[nH]cnc3C)CC2)ccc1F` (centres unmarked) [d9A1-2], the “degradation of endogenous SLC9A1” value (HAP1 and KBM7 cells) is on record as “degradation of endogenous SLC9A1 at sub-micromolar concentration”. In addition, where the note is “HAP1 and KBM7 cells, different concentrations”, the “time within which degradation of SLC9A1 was observed” value is not above 8 h. Moreover, the “SLC9A1 degradation, dose curve” value (HAP1 cells, 24 hours) is on record as “most effective”. Besides, for the setting “KBM7 WT and CRBN knockout, 1 µM, 16 hours”, the “SLC9A1 degradation in WT and CRBN knockout cells” value is on record as “observed in WT but not CRBN knockout”. Under “KBM7 cells, varying concentrations, 5, 7, 9 or 12 hours”, the “SLC9A1 expression, time course” value is recorded as “Reduction of SLC9A1 expression was observed”.
